Literature values in patent US20100137787A1, “Delivery devices for modulating inflammation” (Searete LLC, a limited liability corporation of the State …, priority 2008, published 2010).
Values belong to the compound of their own block, whether it stands above or below them.

Columns and labels:
[1] = single agent, infused at 400 mg over one hour
Toll-like receptor 4 = Toll-like receptor 4 (Homo sapiens, UniProt O00206)
Toll-like receptor 4, sequence (O00206 24-839, species assumed): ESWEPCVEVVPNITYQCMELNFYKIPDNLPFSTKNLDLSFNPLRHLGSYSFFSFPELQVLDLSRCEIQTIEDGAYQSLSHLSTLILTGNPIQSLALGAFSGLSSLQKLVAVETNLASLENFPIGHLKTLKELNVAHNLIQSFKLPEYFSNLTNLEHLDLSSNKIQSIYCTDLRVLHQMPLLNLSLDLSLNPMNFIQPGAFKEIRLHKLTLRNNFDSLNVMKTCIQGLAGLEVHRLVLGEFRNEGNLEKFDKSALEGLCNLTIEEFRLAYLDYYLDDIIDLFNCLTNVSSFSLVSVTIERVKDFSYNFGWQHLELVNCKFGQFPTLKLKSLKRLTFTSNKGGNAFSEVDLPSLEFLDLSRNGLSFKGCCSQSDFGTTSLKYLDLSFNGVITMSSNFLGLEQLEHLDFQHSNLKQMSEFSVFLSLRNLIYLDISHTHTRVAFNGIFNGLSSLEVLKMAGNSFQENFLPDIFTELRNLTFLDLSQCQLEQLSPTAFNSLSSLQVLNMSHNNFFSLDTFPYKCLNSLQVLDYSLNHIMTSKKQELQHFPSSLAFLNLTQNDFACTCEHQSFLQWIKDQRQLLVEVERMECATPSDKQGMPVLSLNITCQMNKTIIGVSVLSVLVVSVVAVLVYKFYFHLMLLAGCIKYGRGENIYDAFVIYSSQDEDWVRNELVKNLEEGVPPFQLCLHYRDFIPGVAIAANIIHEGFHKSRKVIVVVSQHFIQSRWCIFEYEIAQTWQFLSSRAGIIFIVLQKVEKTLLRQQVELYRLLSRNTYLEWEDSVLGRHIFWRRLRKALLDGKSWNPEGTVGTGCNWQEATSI

SMILES: CCN(CC)CCCC(C)Nc1ccnc2cc(Cl)ccc12.O=P(O)(O)O.O=P(O)(O)O (stereo not shown) [chloroquine phosphate, 7-chloro-4-[[4-(diethylamino)-1-methylbutyl]amino]quinoline phosphate (1:2)]
tolerability of infusion [1]: without complication

inhibitor of Toll-like receptor 4 (Toll-like receptor 4): inhibitor of Toll-like receptor 4
SMILES: Cl.Cl.Nc1ccccc1Oc1ccc2c(N)nsc2c1 [Example M62812, 3-amino-6-(2-aminophenoxy)-1,2-benzisothiazole dihydrochloride]

inhibition of aldehyde dehydrogenase (aldehyde dehydrogenase): inhibits
SMILES: CCN(CC)C(=S)SSC(=S)N(CC)CC [disulfiram, 1-(diethylthiocarbamoyldisulfanyl)-N,N-diethyl-methanethioamide]
toxicity accompanying aldehyde dehydrogenase inhibition (aldehyde dehydrogenase): without toxicity
